{
  "source": "paper PMC7661526",
  "about": "“Antibiofilm effects of N,O-acetals derived from 2-amino-1,4-naphthoquinone are associated with downregulation of important global virulence regulators in methicillin-resistant Staphylococcus aureus” (Scientific Reports, 2020)",
  "key": {"[1]": {"test_system": "hla"}, "[2]": {"test_system": "fnbA", "assay": "Real-time RT-qPCR of biofilm-associated genes", "type": "cell-based, Staphylococcus aureus"}, "[3]": {"test_system": "MRSA ST5-SCCmecII (USA100)", "assay": "Disk diffusion test", "type": "cell-based, Staphylococcus aureus"}, "[4]": {"test_system": "sarA", "assay": "Real-time RT-qPCR of global regulators", "type": "cell-based, Staphylococcus aureus"}, "[5]": {"test_system": "rnaIII", "assay": "Real-time RT-qPCR of global regulators", "type": "cell-based, Staphylococcus aureus"}, "[6]": {"test_system": "MRSA ST8-SCCmecIV (USA300)", "assay": "Disk diffusion test", "type": "cell-based, Staphylococcus aureus"}, "[7]": {"test_system": "psmα3", "assay": "Real-time RT-qPCR of biofilm-associated genes", "type": "cell-based, Staphylococcus aureus"}, "[8]": {"test_system": "mecA", "assay": "Real-time RT-qPCR of biofilm-associated genes", "type": "cell-based, Staphylococcus aureus"}, "[9]": {"test_system": "MRSA ST5-SCCmecIV (USA800)", "assay": "Disk diffusion test", "type": "cell-based, Staphylococcus aureus"}, "[10]": {"test_system": "MRSA (ST1-SCCmecIV) (USA400)", "assay": "Disk diffusion test", "type": "cell-based, Staphylococcus aureus"}, "[11]": {"test_system": "MRSA USA300 (USA300-0114)", "assay": "MIC, broth microdilution", "type": "cell-based, Staphylococcus aureus", "procedure": "(§1) For biofilm production, tryptic soy broth (TSB; BD, Franklin Lakes, NJ, USA) was supplemented with 1% (w/v) glucose (TSB-Glu). Tryptic soy agar (TSA; BD) was used for bacterial growth. The Mueller-Hinton broth (MHB; BD) and Mueller-Hinton agar (MHA; BD) was used for susceptibility tests. All strains were maintained in 10% (v/v) glycerol stocks and stored at − 80 °C.\n(§2) The derivatives were also analyzed quantitatively using microdilution assays in 96-well inert polystyrene microtiter plates (Nuclon; Nalge Nunc International, Rochester, NY, USA) to determine the minimal inhibitory concentration (MIC)[14]. Biological control, as well as growth conditions, were performed following CLSI recommendation[15],[16]. […] Controls were also performed using 2% (v/v) DMSO only."}, "[12]": {"test_system": "MRSA Pediatric-USA800 (USA800-0179)", "assay": "MIC, broth microdilution", "type": "cell-based, Staphylococcus aureus", "procedure": "as §1, §2"}, "[13]": {"test_system": "MRSA USA400 (USA400-0051)", "assay": "MIC, broth microdilution", "type": "cell-based, Staphylococcus aureus", "procedure": "as §1, §2"}, "[14]": {"test_system": "MRSA OSPC-USA1100 (07-040)", "assay": "MIC, broth microdilution", "type": "cell-based, Staphylococcus aureus", "procedure": "as §1, §2"}, "[15]": {"test_system": "MRSA NY/Japan-USA100 (CR15-071)", "assay": "MIC, broth microdilution", "type": "cell-based, Staphylococcus aureus", "procedure": "as §1, §2"}, "[16]": {"test_system": "S. aureus ATCC 25923", "assay": "MIC, broth microdilution", "type": "cell-based, Staphylococcus aureus", "text": "(§3) Strain representatives of six globally spread clones/lineages of MRSA were used in this study to test the antimicrobial activity of the N,O-acetal derivatives against MRSA: NY/Japan-USA100/ST5-SCCmecII (strain CR15-071), USA300/ST8-SCCmecIV (strain USA300-0114), USA400/ST1-SCCmecIV (strain USA400-0051), Brazilian epidemic clone-BEC/ST239-SCCmecIII (strain BMB9393), pediatric clone-USA800/ST5-SCCmecIV (strain USA800-0179), and OSPC-USA1100/ST30-SCCmecIV (strain 07-040). The S. aureus ATCC 25923 was used as a control for the experiment of drug susceptibility. […] For biofilm production, tryptic soy broth (TSB; BD, Franklin Lakes, NJ, USA) was supplemented with 1% (w/v) glucose (TSB-Glu). Tryptic soy agar (TSA; BD) was used for bacterial growth. The Mueller-Hinton broth (MHB; BD) and Mueller-Hinton agar (MHA; BD) was used for susceptibility tests. All strains were maintained in 10% (v/v) glycerol stocks and stored at − 80 °C.\nas §2, with “The antibacterial activity of 6a and its derivatives 7a, 7b, and 7c was tested as previously described using paper disks impregnated with each compound[13]. The” for “The”"}, "[17]": {"test_system": "MRSA strain BMB9393", "assay": "Autolytic system: extracellular DNA (eDNA) in supernatant", "type": "cell-based, Staphylococcus aureus", "conditions": "1/4MIC, 7b stated relative to 7c"}, "[18]": {"test_system": "spa", "assay": "Real-time RT-qPCR of biofilm-associated genes", "type": "cell-based, Staphylococcus aureus"}, "[19]": {"test_system": "S. aureus ATCC 25923", "assay": "Disk diffusion test", "type": "cell-based, Staphylococcus aureus", "text": "as §3\nas §2, with “The antibacterial activity of 6a and its derivatives 7a, 7b, and 7c was tested as previously described using paper disks impregnated with each compound[13]. The” for “The”"}, "[20]": {"test_system": "MRSA ST30-SCCmecIV (USA1100)", "assay": "Disk diffusion test", "type": "cell-based, Staphylococcus aureus"}, "[21]": {"test_system": "MRSA ST239-SCCmecIII (BMB9393)", "assay": "Disk diffusion test", "type": "cell-based, Staphylococcus aureus"}, "[22]": {"test_system": "MRSA BEC (BMB9393)", "assay": "microbe, parasite or virus in culture", "type": "cell-based, Staphylococcus aureus", "procedure": "as §1, §2"}, "[23]": {"test_system": "atlA", "assay": "Autolytic system: atlA real-time qRT-PCR", "type": "cell-based, Staphylococcus aureus"}, "[24]": {"test_system": "MRSA strain BMB9393 biofilm", "assay": "Confocal laser scanning microscopy (CLSM) of biofilm", "type": "cell-based, Staphylococcus aureus", "conditions": "1/4MIC (7b 32 µg/mL, 7c 16 µg/mL); SYTO 9; compared with untreated biofilms", "procedure": "For CLSM experiments, after 24 h of incubation, the supernatant containing planktonic cells was gently removed, and biofilm treated with 25 nM SYTO 9 DNA-intercalating stain (Invitrogen; Carlsbad, CA, EUA), as previously described. Before visualization, SYTO 9 solution was removed and the material visualized using a confocal laser scanning microscope (Model LSM510 Carl Zeiss Meditec; Jena, Germany). The microscope was configured with the argon laser (458 nm/477 nm/488 nm/514 nm). The images were randomly captured with the […]. Controls were performed using 2% (v/v) DMSO only (final concentration). Three independent experiments were performed in quadruplicate."}, "[25]": {"conditions": "Table 2, used for SI, strain not given, values of 6a-7c equal those for BEC (BMB9393)"}},
  "note": "Like-named read-outs stand apart in the source and are kept apart here.",
  "data": [
    {"smiles": "CCOCNC1=CC(=O)c2ccccc2C1=O", "note": "[7b, 2-(ethoxymethyl)-amino-1,4-naphthoquinone]", "values": [
      {"measurement": "Reduction of hla expression", "setting": "[1]", "value": "90.0 ± 0.6", "unit": "%"},
      {"measurement": "Reduction of fnbA expression", "setting": "[2]", "value": "89.3% ± 1.5%"},
      {"measurement": "Inhibition zone", "setting": "[3]", "value": "13±2.0", "unit": "mm"},
      {"measurement": "Reduction of sarA gene expression", "setting": "[4]", "value": "65.5 ± 6.0", "unit": "%"},
      {"measurement": "Reduction of RNAIII transcripts", "setting": "[5]", "value": "88.0 ± 1.1", "unit": "%"},
      {"measurement": "Inhibition zone", "setting": "[6]", "value": "12±2.0", "unit": "mm"},
      {"measurement": "Reduction of psmα3 expression", "setting": "[7]", "value": "97.75 ± 0.6", "unit": "%"},
      {"measurement": "mecA expression", "setting": "[8]", "value": "not significantly affected"},
      {"measurement": "Inhibition zone", "setting": "[9]", "value": "13±0.5", "unit": "mm"},
      {"measurement": "Inhibition zone", "setting": "[10]", "value": "13±1.0", "unit": "mm"},
      {"measurement": "MIC", "setting": "[11]; Staphylococcus aureus", "value": 64, "unit": "µg/mL"},
      {"measurement": "MIC", "setting": "[12]; Staphylococcus aureus", "value": 256, "unit": "µg/mL"},
      {"measurement": "MIC", "setting": "[13]; Staphylococcus aureus", "value": 128, "unit": "µg/mL"},
      {"measurement": "MIC", "setting": "[14]; Staphylococcus aureus, MRSA", "value": 256, "unit": "µg/mL"},
      {"measurement": "MIC", "setting": "[15]; Staphylococcus aureus", "value": 128, "unit": "µg/mL"},
      {"measurement": "MIC", "setting": "[16]; Staphylococcus aureus, ATCC25923, control strain S. aureus ATCC 25923, read-out: MIC", "value": 64, "unit": "µg/mL"},
      {"measurement": "Amount of eDNA in bacterial supernatant (cell lysis)", "setting": "[17]", "value": "even higher (about two-fold)"},
      {"measurement": "Reduction of spa expression", "setting": "[18]", "value": "95.4 ± 0.9", "unit": "%"},
      {"measurement": "Inhibition zone", "setting": "[19]", "value": "12.5±3.5", "unit": "mm"},
      {"measurement": "Inhibition zone", "setting": "[20]", "value": "13±1.0", "unit": "mm"},
      {"measurement": "Inhibition zone", "setting": "[21]", "value": "10±1.0", "unit": "mm"},
      {"measurement": "MIC", "setting": "[22]; Staphylococcus aureus, MRSA", "value": 128, "unit": "µg/mL"},
      {"measurement": "MIC", "setting": "[22]; [25]", "value": 128, "unit": "µg/mL"},
      {"measurement": "Increase in atlA transcripts", "setting": "[23]", "value": 3.5, "unit": "times"},
      {"measurement": "Biofilm accumulation by CLSM", "setting": "[24]", "value": "decrease biofilm accumulation massively"}
    ]},
    {"smiles": "C#CCOCNC1=CC(=O)c2ccccc2C1=O", "note": "[7c, 2-(propynyloxymethyl)-amino-1,4-naphthoquinone]", "values": [
      {"measurement": "Reduction of hla expression", "setting": "[1]", "value": "86.5 ± 1.0", "unit": "%"},
      {"measurement": "Reduction of fnbA expression", "setting": "[2]", "value": "24.64% ± 3.5%"},
      {"measurement": "Inhibition zone", "setting": "[3]", "value": "12±1.5", "unit": "mm"},
      {"measurement": "Reduction of sarA gene expression", "setting": "[4]", "value": "no important effect"},
      {"measurement": "Reduction of RNAIII transcripts", "setting": "[5]", "value": "70.6 ± 2.2", "unit": "%"},
      {"measurement": "Inhibition zone", "setting": "[6]", "value": "13±1.3", "unit": "mm"},
      {"measurement": "Reduction of psmα3 expression", "setting": "[7]", "value": "87.73 ± 4.3", "unit": "%"},
      {"measurement": "mecA expression", "setting": "[8]", "value": "not significantly affected"},
      {"measurement": "Inhibition zone", "setting": "[9]", "value": "13±1.0", "unit": "mm"},
      {"measurement": "Inhibition zone", "setting": "[10]", "value": "11±0.8", "unit": "mm"},
      {"measurement": "MIC", "setting": "[11]; broth microdilution, USA300 (USA300-0114)", "value": 64, "unit": "µg/mL"},
      {"measurement": "MIC", "setting": "[12]; broth microdilution, Pediatric-USA800 (USA800-0179)", "value": 64, "unit": "µg/mL"},
      {"measurement": "MIC", "setting": "[13]; broth microdilution, USA400 (USA400-0051)", "value": 64, "unit": "µg/mL"},
      {"measurement": "MIC", "setting": "[14]; broth microdilution, OSPC-USA1100 (07-040)", "value": 128, "unit": "µg/mL"},
      {"measurement": "MIC", "setting": "[15]; broth microdilution, NY/Japan-USA100 (CR15-071)", "value": 128, "unit": "µg/mL"},
      {"measurement": "MIC", "setting": "[16]; control strain S. aureus ATCC 25923", "value": 16, "unit": "µg/mL"},
      {"measurement": "Amount of eDNA in bacterial supernatant (cell lysis)", "setting": "[17]", "value": "increased"},
      {"measurement": "Reduction of spa expression", "setting": "[18]", "value": "74.82 ± 4.9", "unit": "%"},
      {"measurement": "Inhibition zone", "setting": "[19]", "value": "14±3.4", "unit": "mm"},
      {"measurement": "Inhibition zone", "setting": "[20]", "value": "15±0.8", "unit": "mm"},
      {"measurement": "Inhibition zone", "setting": "[21]", "value": "13±1.0", "unit": "mm"},
      {"measurement": "MIC", "setting": "[22]; [25]", "value": 64, "unit": "µg/mL"},
      {"measurement": "MIC", "setting": "[22]; broth microdilution, BEC (BMB9393)", "value": 64, "unit": "µg/mL"},
      {"measurement": "Increase in atlA transcripts", "setting": "[23]", "value": "three-fold increase"},
      {"measurement": "Biofilm accumulation by CLSM", "setting": "[24]", "value": "decrease biofilm accumulation massively"}
    ]}
  ]
}
